Test results published in US20230372263A1, “METHODS AND COMPOSITIONS FOR TREATING AMYOTROPHIC LATERAL SCLEROSIS” (Amylyx Pharmaceuticals, Inc., priority 2022, published 2023).
Each block holds one molecule with its values, some of them ahead of it.

How the values were obtained:
clinical [1] = assay type: in vivo, human; settings: human, in vivo; for concentration at 1 h / concentration at 4 h: both sexes
Description: • 1. […] Treatment is administered as one sachet daily for the initial 3 weeks and then increased if tolerated to one sachet twice daily. […] Sampling times are randomly assigned to occur at either 1 or 4 hours post-dose at the 12 week visit and the other time at the 24 week visit. • Treatment duration: 24 weeks • 2.
(§1) • Protocol AMX3500: sparse sampling in 87 subjects with ALS. Approximately 2 samples are collected for each subject, 1 or 4 hours post dose following 12 and 24 weeks of treatment. • Protocol A35-002: rich sampling in 14 healthy adults. Approximately 21 samples are collected over 24 hours for each subject on two occasions, once following a high fat meal and the other under fasting conditions.
Subjects were advised to take the drug before a meal. […] Referred to as protocol 3500.
A study was carried out to examine plasma concentration data in various subgroups for the protocol AMX3500 Phase 2 study. This example summarizes plasma concentrations of TUDCA and 2 metabolites, also related acids, UDCA, the de-conjugated TUDCA metabolite, and GUDCA, the glycine conjugate of UDCA.
For each of the 2 treatment arms (treatment and placebo), subjects were further divided into 2 sample sequence groups for schedule of pharmacokinetic measurements: • 1. 1 hour post-dose for the Week 12 visit and 4 hours post-dose for the Week 24 visit • 2. 4 hours post-dose for the Week 12 visit and 1 hour post-dose for the Week 24 visit
Twenty-four distinct medication descriptions were identified as containing antibiotics. Dates of antibiotic use were compared to dates of visits and if the antibiotic use date range contained the visit date, then that visit was flagged for that subject's data for antibiotic use. […] These antibiotics could hypothetically be in a subject's body still if this event occurred. However, it was observed that only a small number of subjects took antibiotics near to visit dates but not overlapping visit dates. In other cases, subjects were taking antibiotics on the date of one visit but not the others. Some subjects are therefore in both categories of antibiotic use and nonuse, though no individual visits for a subject are counted in both categories at the same time.
Subjects whose race were recorded as “Black” or “African American” were evaluated according to the standard Glomerular Filtration Rate (eGFR) rating for that race. The other standard eGFR rating used, sometimes referred to as a standard for people who are White, was applied to subjects of all other races. These rates were analyzed as continuous in mL/min/1.73 m2 units and as the following categories: • 1. Less than 90 mL/min/1.73 m^2 • 2. Equal to or greater than 90 mL/min/1.73 m^2
Age was converted from a continuous variable to 2 categories: • 1. As old or older than 65 years old • 2. Younger than 65 years old
All boxplots boxes are bounded at the 25th and 75th percentile, with whiskers at 10th and 90th percentiles, outliers beyond that as points, the black line as median, and red line as mean.

clinical [2] = assay type: in vivo, human; settings: human, in vivo; for AUC(0-t): AUC(0-last)
Description: as §1
A total of 14 healthy subjects were enrolled in order to have no fewer than 12 subjects complete. A predefined mix of gender was selected.
Each study period followed the same study design (FIG. 1). Subjects were screened for inclusion in the study up to 28 days before dosing. Subjects were admitted to the clinical unit during Study Day −2 for Period 1 and Day −1 for Period 2 and were dosed in the morning of Day 1. On the night prior to Period 1 the subjects in the fasted/fed or fed/fasted sequence were fasted for a minimum of 10 h prior to dosing.
The solution was stirred until the powder was mostly dissolved.
Any departures from the intended regimen were recorded in the eCRFs. All dose administrations were performed in the study center under the supervision of appropriately trained staff.
Subjects were provided with a light snack and were then fasted from all food and drink (except water) until the following morning, when they were provided with a high-fat breakfast. The breakfast was consumed over a maximum period of 25 min, and dosing occurred 30 min after the start of breakfast. Subjects were encouraged to eat their meal evenly over the 25 min period. For this trial the subject was deemed compliant if they consumed >80% of the high-fat standard breakfast.
The subjects in the 24-h baseline and in the fasted condition Period remained fasted up to 4 h post-dose and were offered a standardized meal to be taken between 4.00 and 5.00 h post-dose. Subjects in the fed condition were fasted overnight and received a high-fat standard breakfast 30 minutes pre-dose and then remained fasted for 4.00 to 5.00 h post-dose when they received a standardized meal.
Venous blood samples were withdrawn via an indwelling cannula or by venipuncture according to the time schedule presented in Table 5 Table, Table 6, and Table 7.
Blood samples of approximately 4 mL were collected into 4 mL BD Vacutainer Plastic K2EDTA Tubes with Lavender Hemogard Closure, and was gently inverted approximately 8 times. The tubes were then immediately stored on ice and processed within 60 min of collection by centrifugation at 1500 g for 10 min at 2 to 8° C. The resultant plasma was separated equally into 2 aliquots and transferred to 2 mL appropriately labelled primary and backup polypropylene cryovials.
Actual elapsed time from dosing was to be used for the final plasma PK parameter calculations after database lock.

[3] = Steady-state plasma concentration

concentration at 1 h (clinical [1]; Plasma Concentration, Mean): 1020 ng/mL | concentration at 4 h (clinical [1]; Plasma Concentration, Mean): 1510 ng/mL | concentration at 1 h (clinical [1]; Plasma Concentration, Median): 773 ng/mL | concentration at 4 h (clinical [1]; Plasma Concentration, Median): 1500 ng/mL | concentration at 1 h (clinical [1]; [3]): 1070 ng/mL | concentration at 4 h (clinical [1]; [3]): 1320 ng/mL | steady state reached by (clinical [1]; both): ≤ 12 Week | Plasma Concentration, Median (clinical [1]; both, 1 h): 815.0 ng/mL | Plasma Concentration, Median (clinical [1]; both, 4 h): 1190.0 ng/mL | Plasma Concentration, Min (clinical [1]; both, 4 h): 20.0 ng/mL | accumulation in plasma after once- or twice-daily dosing (clinical [1]): substantial accumulation | effect of age on steady-state plasma concentration (clinical [1]): no difference | effect of mild renal insufficiency on steady-state plasma concentration (clinical [1]): no discernible difference | Tmax (clinical [2]; both sexes, Tmax Median): 16 h | AUC(0-t) (clinical [2]; both sexes, po, Geometric Mean): 4140 ng·h/mL | Cmax (clinical [2]; both sexes, po): 381 ng/mL | Cmax (clinical [2]; both sexes, po, Geometric Mean): 381 ng/mL | half-life (clinical [2]; both sexes, po, T1/2, Geometric Mean): 12.7 h | AUC(0-last) Ratio of adj geo means Fed/Fasted (GMR) (clinical [2]; both): 137.31% | AUG(0-last) (clinical [2]; both): 5060 (88.2) ng.h/ml | Cmax Ratio of adj geo means Fed/Fasted (GMR) (clinical [2]; both): 134.45% | MR Cmax (metabolite to parent ratio) (clinical [2]; both): 0.571 | T1/2 (clinical [2]; both): 12.744 h | increase in AUC(0-last), fed relative to fasted (clinical [2]; both): ~37% | peak exposure to metabolite as % of that for parent (clinical [2]; both): approximately 51% | time of maximum plasma concentrations (range) (clinical [2]; both): 6.00 to 20.00 h | total exposure to metabolite based on AUC(0-last) as % of that for parent (clinical [2]; both): approximately 95% | AUC(0-last), Adj Geo Mean (clinical [2]; both, po): 4200 ng·h/mL | AUC(0-last), Max (clinical [2]; both, po): 12000 ng·h/mL | AUC(0-last), Median (clinical [2]; both, po): 3400 ng·h/mL | AUC(0-last), Min (clinical [2]; both, po): 1840 ng·h/mL | AUC(0-last), Ratio of adj geo means Fed/Fasted (clinical [2]; both, po): 137.31% | Cmax, Adj Geo Mean (clinical [2]; both, po): 382 ng/mL | Cmax, Max (clinical [2]; both, po): 1420 ng/mL | Cmax, Median (clinical [2]; both, po): 353 ng/mL | Cmax, Min (clinical [2]; both, po): 143 ng/mL | Cmax, Ratio of adj geo means Fed/Fasted (clinical [2]; both, po): 134.45% | Lambda-z, Geometric Mean (clinical [2]; both, po): 0.0543 h⁻¹ | Lambda-z, Max (clinical [2]; both, po): 0.0544 h⁻¹ | Lambda-z, Median (clinical [2]; both, po): 0.0543 h⁻¹ | Lambda-z, Min (clinical [2]; both, po): 0.0544 h⁻¹ | T1/2, Max (clinical [2]; both, po): 12.74 h | T1/2, Median (clinical [2]; both, po): 12.744 h | T1/2, Min (clinical [2]; both, po): 12.74 h | Tmax, Max (clinical [2]; both, po): 20.00 h | Tmax, Min (clinical [2]; both, po): 6.00 h | MR AUC(0-last) (clinical [2]): 1.056
SMILES: C[C@H](CCC(=O)NCC(=O)O)[C@H]1CC[C@H]2[C@@H]3[C@@H](O)C[C@@H]4C[C@H](O)CC[C@]4(C)[C@H]3CC[C@]12C [GUDCA, glycoursodeoxycholic acid]
steady-state plasma concentrations versus endogenous levels (clinical [1]): at least an order of magnitude higher than endogenous levels

concentration at 1 h (clinical [1]; Plasma Concentration, Mean): 1080 ng/mL | concentration at 4 h (clinical [1]; Plasma Concentration, Mean): 1300 ng/mL | concentration at 1 h (clinical [1]; Plasma Concentration, Median): 592 ng/mL | concentration at 4 h (clinical [1]; Plasma Concentration, Median): 920 ng/mL | concentration at 1 h (clinical [1]; [3]): 910 ng/mL | concentration at 4 h (clinical [1]; [3]): 1170 ng/mL | Plasma Concentration, Min (clinical [1]; both): 20.0 ng/mL | Plasma Concentration, Q1 (clinical [1]; both): 20.0 ng/mL | steady state reached by (clinical [1]; both): ≤ 12 Week | Plasma Concentration, Mean (clinical [1]; both, 1 h): 909.9 ng/mL | Plasma Concentration, Median (clinical [1]; both, 1 h): 614.0 ng/mL | Plasma Concentration, Min (clinical [1]; both, 4 h): 20.0 ng/mL | accumulation in plasma after once- or twice-daily dosing (clinical [1]): substantial accumulation | effect of age on steady-state plasma concentration (clinical [1]): no difference | effect of mild renal insufficiency on steady-state plasma concentration (clinical [1]): no discernible difference | AUC(0-inf) (clinical [2]; both sexes, AUC(0-inf)): 11300 ng·h/mL | AUC(0-t) (clinical [2]; both sexes): 5540 ng·h/mL | Cmax (clinical [2]; both sexes): 639 ng/mL | half-life (clinical [2]; both sexes, elimination half-lives (range)): 3.01 to 7.58 h | Cmax (clinical [2]; both sexes, po): 639 ng/mL | AUC(0-inf) (clinical [2]; both): 11300 ng·h/mL | AUC(0-last) Ratio of adj geo means Fed/Fasted (GMR) (clinical [2]; both): 136.34% | AUG(0-last) (clinical [2]; both): 5540 (72.5) ng.h/ml | Cmax Ratio of adj geo means Fed/Fasted (GMR) (clinical [2]; both): 112.17% | Tmax Median (clinical [2]; both): 6.000 h | increase in AUC(0-last), fed relative to fasted (clinical [2]; both): ~36% | increase in Cmax, fed relative to fasted (clinical [2]; both): approximately 12% | peak exposure to metabolite as % of that for parent (clinical [2]; both): approximately 86% | time of maximum plasma concentrations (range) (clinical [2]; both): 0.25 to 20.00 h | total exposure to metabolite based on AUC(0-last) as % of that for parent (clinical [2]; both): approximately 127% | AUC(0-last), Adj Geo Mean (clinical [2]; both, po): 5530 ng·h/mL | AUC(0-last), Ratio of adj geo means Fed/Fasted (clinical [2]; both, po): 136.34% | Cmax, Adj Geo Mean (clinical [2]; both, po): 635 ng/mL | Cmax, Ratio of adj geo means Fed/Fasted (clinical [2]; both, po): 112.17% | Tmax Median (clinical [2]; both, po): 6.000 h
SMILES: C[C@H](CCC(=O)O)[C@H]1CC[C@H]2[C@@H]3[C@@H](O)C[C@@H]4C[C@H](O)CC[C@]4(C)[C@H]3CC[C@]12C [UDCA, ursodeoxycholic acid]
steady-state plasma concentrations versus endogenous levels (clinical [1]): at least an order of magnitude higher than endogenous levels
